Measured values from paper PMC6478823, “A suite of phenotypic assays to ensure pipeline diversity when prioritizing drug-like Cryptosporidium growth inhibitors” (Nature Communications, 2019).

Key:
Assay type in all cases: cell-based, Cryptosporidium parvum
[1] = system: C. parvum DMC1 expression; experiment: Sexual differentiation assay (DMC1 expression); conditions: compound at asexual EC90, 48-72 h; for Asexual to sexual differentiation: Mean % DMC1 inhibition (normalized to host nuclei), Average: average of replicates; for Asexual to sexual differentiation: Mean % DMC1 inhibition (normalized to host nuclei), Replicate 1a: single replicate 1; for Asexual to sexual differentiation: Mean % DMC1 inhibition (normalized to host nuclei), Replicate 2a: single replicate 2; for Asexual to sexual differentiation: Mean % DMC1 inhibition (normalized to host nuclei), Replicate 3a: single replicate 3
Outline: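 Compounds applied at their previously determined asexual-assay EC90, and % inhibition of DMC1 expression reported. Readout: 4% paraformaldehyde fixation, immunostaining with mAb 1H10G7 plus fluorescein-lectin and Hoechst, tiled 20× imaging in 384-well format, ImageJ analysis counting lectin-positive then DMC1-positive parasites.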

C. parvum [2] = experiment: DNA replication assay (EdU incorporation); conditions: compound at EC90; for DNA Synthesis Assay: Mean % Inhibition of EdU-labeling (normalized to parasite numbers), Average: average of replicates; for DNA Synthesis Assay: Mean % Inhibition of EdU-labeling (normalized to parasite numbers), Replicate 1: single replicate 1; for DNA Synthesis Assay: Mean % Inhibition of EdU-labeling (normalized to parasite numbers), Replicate 2: single replicate 2; for DNA Synthesis Assay: Mean % Inhibition of EdU-labeling (normalized to parasite numbers), Replicate 3: single replicate 3; for DNA synthesis: yes/no grouping by phenotypic assay result
C. parvum [3] = conditions: compound at EC90; for Invasion Assay: Mean % Inhibition (parasites), Average: average of replicates; for Invasion Assay: Mean % Inhibition (parasites), Replicate 1a: single biological replicate 1; for Invasion Assay: Mean % Inhibition (parasites), Replicate 2a: single biological replicate 2; for Sporozoite invasion: yes/no grouping by phenotypic assay result

Row | SMILES | Asexual to sexual differentiation: Mean % DMC1 inhibition (normalized to host nuclei), Average [1] [%] | Asexual to sexual differentiation: Mean % DMC1 inhibition (normalized to host nuclei), Replicate 1a [1] [%] | Asexual to sexual differentiation: Mean % DMC1 inhibition (normalized to host nuclei), Replicate 2a [1] [%] | DNA Synthesis Assay: Mean % Inhibition of EdU-labeling (normalized to parasite numbers), Average (C. parvum [2]) [%] | DNA Synthesis Assay: Mean % Inhibition of EdU-labeling (normalized to parasite numbers), Replicate 1 (C. parvum [2]) [%] | DNA Synthesis Assay: Mean % Inhibition of EdU-labeling (normalized to parasite numbers), Replicate 2 (C. parvum [2]) [%] | DNA Synthesis Assay: Mean % Inhibition of EdU-labeling (normalized to parasite numbers), Replicate 3 (C. parvum [2]) [%] | DNA synthesis (C. parvum [2]) | Invasion Assay: Mean % Inhibition (parasites), Average (C. parvum [3]) [%] | Invasion Assay: Mean % Inhibition (parasites), Replicate 1a (C. parvum [3]) [%] | Invasion Assay: Mean % Inhibition (parasites), Replicate 2a (C. parvum [3]) [%] | Sporozoite invasion (C. parvum [3]) | Asexual to sexual differentiation: Mean % DMC1 inhibition (normalized to host nuclei), Replicate 3a [1] [%] | DNA Synthesis Assay: Mean % Inhibition of EdU-labeling (normalized to parasite numbers), Replicate 4 (C. parvum [2]; single replicate 4) [%]
1 | COc1ccc(Nc2nc(NCc3ccccc3Cl)c3ccccc3n2)cc1Cl [B-13] | 11.26 | 30.33 | -7.82 | -3.46 | 5.94 | -6.60 | -9.73 | no | 82.51 | 92 | 73 | yes |  | 
2 | CN(C)c1ccc(C(=C2C=CC(=[N+](C)C)C=C2)c2ccc(N(C)C)cc2)cc1 [Gentian Violet] | 34.34 | 8.16 | 38.90 | 47.40 | 62.13 | 74.23 | 5.82 |  | -6.62 | -1.27 | -12 |  | 55.96 | 
3 | CCOc1ccc(Cl)c2c1B(O)OC2CN (stereo not shown) [AN6426] | 62.47 | 60.83 | 64.12 | 86.81 | 80.80 | 89.13 | 90.50 |  | -16.44 | -18 | -15 |  |  | 
4 | O=C(NC(c1ccccc1)c1ccc2cccnc2c1O)c1ccccc1 (stereo not shown) [A-5] | 65.35 | 63.04 | 67.67 | 99.95 | 100.00 | 100.00 | 99.80 | yes | -13.46 | -13 | -14 | no |  | 100.00
5 | CCOc1ccc2cc(-c3nn(CC4CCN(C)CC4)c4ncnc(N)c34)ccc2n1 [BKI-1369] | 41.93 | -4.30 | 59.32 | 16.97 | 25.00 | 8.94 |  |  | -7.94 | -5 | -11 |  | 70.76 | 
6 | O=C(CC1NCCCC1O)Cn1cnc2cc(Br)c(Cl)cc2c1=O (stereo not shown) [Halofuginone] | 68.25 | 51.29 | 73.88 | 88.20 | 85.31 | 91.09 |  |  | 6.92 | 11 | 2.47 |  | 79.59 | 
7 | CC(=O)O[C@@]12CO[C@@H]1C[C@H](O)[C@@]1(C)C(=O)[C@H](O)C3=C(C)[C@@H](OC(=O)[C@H](O)[C@@H](NC(=O)OC(C)(C)C)c4ccccc4)C[C@@](O)([C@@H](OC(=O)c4ccccc4)[C@H]21)C3(C)C [Docetaxel] | 37.07 | 34.13 | 40.00 | 16.66 | 33.42 | -0.10 |  |  | -8.63 | -1.34 | -16 |  |  | 
8 | Cc1cccc(-n2ncc3c(=O)[nH]c(-n4nc(C)cc4NC(=O)C4CCCC4)nc32)c1 [C-5] | 52.89 | 39.80 | 65.99 | 98.17 | 96.33 | 100.00 |  |  | 13.07 | 31 | -4.39 |  |  | 
9 | CCOc1ccc2cc(-c3nn(CC4CCN(C)CC4)c4ncnc(N)c34)ccc2c1 [BKI-1294] | 45.56 | 58.94 | 32.18 | -5.73 | -9.55 | -1.92 |  |  | -6.64 | 12 | -26 |  |  | 
10 | c1ccc(CNc2nc(NCc3ccccc3)c3ccccc3n2)cc1 [B-23] | -6.40 | -17.01 | 2.19 | 1.59 | -16.14 | 17.17 | 3.74 | no | 83.80 | 84 | 83 | yes | -4.38 | 
